Counter-ions that a name gives are not always drawn.
Tests used:
Assay type in all cases: in vivo
[1] = system: Taraxacum officinale G. H. Weber ex Wiggers (dandelion, TAROF); test: Postemergence herbicidal activity under field conditions in pastures, visual weed control; settings: for Visual Weed Control (%) TAROF 178 DAA Obs: first 178 DAA column; for Visual Weed Control (%) TAROFI 178 DAA Obs: second 178 DAA column
Protocol: (§1) These trials were conducted under field conditions in Ibague, Colombia; Geisenbrunn, Germany; and Montarges, France. Trial sites were located in commercially grown fields of common rice (Oryza sativa) or permanent pastures. The rice and pasture crops were grown using normal cultural practices for fertilization, seeding, and maintenance to ensure good growth of the crop and the weeds. The trials were conducted using normal research methodology. Trial plots were 2-3 meters (m) wide by 6 m long. All treatments were applied using a randomized complete block trial design with 3 to 4 replications per treatment. The trial sites had naturally occurring populations of weeds. The weed spectrum included, but was not limited to, Cyperus iria L. (rice flatsedge, CYPIR), Eclipta prostrata (L.) L. (eclipta, ECLAL), Ludwigia linifolia (ludwigia, LUDLI), Taraxacum officinale G. H. Weber ex Wiggers (dandelion, TAROF), Rumex obtusifolius L. (broadleaf dock, RUMOB) and Urtica dioica L. (common nettle, URTDI). The plots were treated with a postemergence foliar application 15 to 20 days after emergence of the rice or during the normal timing of herbicide application used for weed control in pastures/grasslands.
(§2) Treatments consisted of tank mixes of commercially available formulations of aminopyralid triisopropanolammonium salt (MILESTONE 240SL), triclopyr butotyl (GARLON4 480EC) and an experimental formulation of the aminopyralid potassium salt (GF-389), with all rice treatments tankmixed with adjuvant (CARRIER 80EC) at 0.5% volume per volume (vol/vol) but no adjuvant was used in any of the pasture treatments. The application volume was 200 liters per hectare (L/ha) of water. All applications were made using precision gas hand sprayers using a 2 m boom using flat fan (8002) nozzles to broadcast the treatments over the top of the target crop (rice and pastures) and weeds.
(§3) The treated plots and control plots were rated blind at various intervals after application. Ratings were based of Percent (%) Visual weed control, where 0 corresponds to no injury and 100 corresponds to complete kill.
(§4) Colby's equation was used to determine the herbicidal effects expected from the mixtures (Colby, S. R. Calculation of the synergistic and antagonistic response of herbicide combinations. Weeds 1967 15, 20-22).
(§5) The following equation was used to calculate the expected activity of mixtures containing two active ingredients, A and B:
(§6) A=observed efficacy of active ingredient A at the same concentration as used in the mixture;
(§7) B=observed efficacy of active ingredient B at the same concentration as used in the mixture.

[2] = system: Rumex obtusifolius L. (broadleaf dock, RUMOB); test: as above
Protocol: as §1, §2, §3, §4, §5, §6, §7

[3] = system: Urtica dioica L. (common nettle, URTDI); test: as above
Protocol: as §1, §2, §3, §4, §5, §6, §7

[4] = system: Eclipta prostrata (L.) L. (eclipta, ECLAL); test: Postemergence herbicidal activity under field conditions in rice, visual weed control
Protocol: as §1, §2, §3, §4, §5, §6, §7

[5] = system: Ludwigia linifolia (ludwigia, LUDLI); test: as above
Protocol: as §1, §2, §3, §4, §5, §6, §7

[6] = system: Cyperus iria L. (rice flatsedge, CYPIR); test: as above
Protocol: as §1, §2, §3, §4, §5, §6, §7

SMILES: Nc1cc(Cl)nc(C(=O)O)c1Cl [Aminopyralid potassium salt, 4-amino-3,6-dichloro-2-pyridinecarboxylic acid]
- Visual Weed Control (%) TAROF 13 DAA Obs ([1]; first TAROF column, aminopyralid 60 g ae/ha alone): 57%
- Visual Weed Control (%) TAROF 13 DAA Obs ([1]; second TAROF column, aminopyralid 60 g ae/ha alone): 45%
- Visual Weed Control (%) TAROF 122 DAA Obs ([1]; aminopyralid 60 g ae/ha alone): 80%
- Visual Weed Control (%) TAROF 178 DAA Obs ([1]; aminopyralid 60 g ae/ha alone): 73%
- Visual Weed Control (%) TAROFI 178 DAA Obs ([1]; aminopyralid 60 g ae/ha alone): 73%
- Visual Weed Control (%) TAROF 378 DAA Obs ([1]; 378 DAA, first TAROF column, aminopyralid 60 g ae/ha alone): 40%
- Visual Weed Control (%) TAROF 378 DAA Obs ([1]; 378 DAA, second TAROF column, aminopyralid 60 g ae/ha alone): 40%
- Visual Weed Control (%) RUMOB 13 DAA Obs ([2]; aminopyralid 60 g ae/ha alone): 82%
- Visual Weed Control (%) URTDI 342 DAA Obs ([3]; aminopyralid 60 g ae/ha alone): 17%

SMILES: Nc1cc(Cl)nc(C(=O)O)c1Cl [Aminopyralid triisopropanolammonium salt, 4-amino-3,6-dichloro-2-pyridinecarboxylic acid]
- Visual Weed Control (%) ECLAL 11 DAA Obs ([4]; aminopyralid 8 g ae/ha alone): 76%
- Visual Weed Control (%) LUDLI 11 DAA Obs ([5]; aminopyralid 8 g ae/ha alone): 73%
- Visual Weed Control (%) CYPIR 11 DAA Obs ([6]; aminopyralid 8 g ae/ha alone): 3%
- Visual Weed Control (%) CYPIR 11 DAA Obs ([6]; aminopyralid 24 g ae/ha alone): 23%
- Visual Weed Control (%) CYPIR 18 DAA Obs ([6]; aminopyralid 8 g ae/ha alone): 8%
- Visual Weed Control (%) CYPIR 18 DAA Obs ([6]; aminopyralid 16 g ae/ha alone): 25%

SMILES: O=C(O)COc1nc(Cl)c(Cl)cc1Cl [Triclopyr, 2-[(3,5,6-trichloro-2-pyridinyl)oxy]acetic acid]
- Visual Weed Control (%) TAROF 13 DAA Obs ([1]; TAROF, triclopyr 240 g ae/ha alone): 27%
- Visual Weed Control (%) TAROF 13 DAA Obs ([1]; TAROF, triclopyr 960 g ae/ha alone): 38%
- Visual Weed Control (%) TAROF 122 DAA Obs ([1]; triclopyr 240 g ae/ha alone): 0- %
- Visual Weed Control (%) TAROF 178 DAA Obs ([1]; triclopyr 480 g ae/ha alone): 0%
- Visual Weed Control (%) TAROFI 178 DAA Obs ([1]; triclopyr 960 g ae/ha alone): 47%
- Visual Weed Control (%) TAROF 378 DAA Obs ([1]; 378 DAA, TAROF, triclopyr 240 g ae/ha alone): 10%
- Visual Weed Control (%) TAROF 378 DAA Exp* ([1]; 378 DAA, TAROF, triclopyr 480 g ae/ha alone (value printed in Exp* column)): 30%
- Visual Weed Control (%) RUMOB 13 DAA Obs ([2]; triclopyr 480 g ae/ha alone): 57%
- Visual Weed Control (%) URTDI 342 DAA Obs ([3]; triclopyr 240 g ae/ha alone): 33%
- Visual Weed Control (%) ECLAL 11 DAA Obs ([4]; triclopyr 24 g ae/ha alone): 6%
- Visual Weed Control (%) LUDLI 11 DAA Obs ([5]; triclopyr 24 g ae/ha alone): 5%
- Visual Weed Control (%) CYPIR 11 DAA Obs ([6]; triclopyr 24 g ae/ha alone): 0%
- Visual Weed Control (%) CYPIR 11 DAA Obs ([6]; triclopyr 72 g ae/ha alone): 1%
- Visual Weed Control (%) CYPIR 18 DAA Obs ([6]; triclopyr 24 g ae/ha alone): 0%
- Visual Weed Control (%) CYPIR 18 DAA Obs ([6]; triclopyr 48 g ae/ha alone): 6%
